Article PMC11023993, “Piperine, quercetin, and curcumin identified as promising natural products for topical treatment of cutaneous leishmaniasis” (Parasitology Research, 2024)
Where two headings read alike, the source gives them in different places.

Key:
L. braziliensis = tested on: L. braziliensis
Excerpt: Golden hamsters (Mesocricetus auratus) were purchased from Charles River Laboratories (Wilmington MA, USA) and bred under specific pathogen-free conditions at the animal facility unit of the Universidad de Antioquia in Medellín, Colombia. Six- to eight-week-old, male, and female hamsters were used for the experiments. Animal experimentation protocols including handling of the animals, sample collection, and euthanasia were done in compliance of the Center for Diseases Control and Prevention guidelines for Safe Work Practices in Human and Animal Medical Diagnostic Laboratories and ARRIVE guidelines (Percie du Sert et al. [2020b]; Khairani et al. [2022]) and approved by the Institutional Ethical Committee for animal experimentation (Act No. 152 of June 01, 2023) (Percie du Sert et al. [2020a]; Khairani et al. [2022]).
Hamsters were anesthetized with ketamine (80 mg/kg, i.p.) and xylazine (15 mg/Kg) before infection and then, ∼1 × 10^8 promastigotes in stationary phase (6 days-old growth) were inoculated into the dorsum dermis (Robledo et al. [2012]). When hamsters developed ulcers larger than 12.5 mm^2, hamsters were randomly distributed into 4 groups (n = 6, each): (1) group treated with QUE (1 mg/day), (2) group treated with PIP (2.5 mg/day), (3) group treated with CUR (1.5 mg/day), (4) group treated with meglumine antimoniate (treatment control group, 200 µg/mL, intralesional). No vehicle control group was included in the present study because castor oil additive is a nonionic surfactant commonly used as an excipient in pharmaceutical formulations, particularly in solubilizing poorly water-soluble drugs. It is widely used as an ingredient in cosmetics for its conditioning properties, based on occlusive action, reducing water loss, and having a nourishing effect on the skin, hair, and nails (Marwat et al. [2017]; Khairani et al. [2022]).
Hamsters were treated daily with 40 µL of the corresponding formulation for 2 weeks, applying it directly over the lesion, while hamsters treated with meglumine antimoniate received treatment three times per week for 4 weeks. Lesion area was measured every week for 90 days with an electronic digital caliper. The body weight gain or loss was supervised every 2 weeks during the study. At the end of the study, hamsters were euthanized with an i.p. injection of ketamine (600 mg/kg) and xylazine (30 mg/kg). The experiments were carried out under normal laboratory lighting conditions. After necropsy, biopsies from healed and unhealed ulcers were removed and fixed in 10% buffered formalin, processed, and stained with hematoxylin–eosin (H-E) stain for histopathology analysis. The changes were analyzed under a standard optical microscope.

[1] = MTT cytotoxicity assay in uninfected U-937 macrophages; details: human
Description: (§1) U-937 (CRL-1593.2™) macrophages (ATCC, Manassas, VA, USA) were cultured in RPMI-1640 medium supplemented with 10% of FBS and incubated at 37 °C in 5% CO2, 95% humidity atmosphere. U-937 cells in the exponential growth phase were recovered, and washed by centrifugation at 1800 rpm for 10 min at room temperature; the pellet was then resuspended in supplemented RPMI 1640 medium and counted in a Neubauer chamber. The number was adjusted to 1 × 10^6 cells per mL and 100 µL was dispensed into each well of a 96-well plate. Then, another 100 µL of each serial dilution of QUE, PIP, CUR, doxorubicin, and amphotericin B was added to each well by triplicate and plates were incubated at 37 °C 5% CO2, 95% humidity atmosphere for 48 h.
(§2) The MTT solution is then added to the treated cells, where the yellow MTT is reduced to purple formazan by a variety of mitochondrial and cytosolic enzymes that are operational in viable cells. After 3 h of incubation with MTT, the formazan precipitates. Consequently, the growing medium was removed, the formazan was dissolved in DMSO, and the absorbance of the solution was measured at 570 nm using a microplate reader spectrophotometer (Varioskan Flash, Thermo Fisher Scientific).
(§3) Cells exposed to the standard cytotoxic drug doxorubicin were used as an internal control for toxicity (positive control) while cells incubated in the absence of any compound or drug were used as a control for viability (negative control). A solution of 0.5% DMSO was used as a blank solution. Non-specific absorbance was corrected by subtracting absorbance (OD) of the blank. Determinations were done by triplicate in at least two independent experiments.
(§4) The OD of viable cells that remained after treatment was compared to the OD of control cells that were not exposed to the drug. The LC50 (median lethal concentration) values and their statistical errors were calculated based on triplicates of the measurement in the independent assays. The LC50 values were determined by non-linear regression using Prism GraphPad 10.
(§5) The LC50 and the EC50 were calculated by Probit analysis using GraphPad Prism 10 (San Diego, CA, USA). Both cytotoxicity and leishmanicidal activity were defined by ranges of values of LC50 and EC50 in terms of high, moderate, or low as follows: high cytotoxicity for LC50 values < 100 µM, moderate cytotoxicity for LC50 values > 100 µM but < 200 µM, and low cytotoxicity for LC50 values > 200 µM. […] In addition, the cytotoxicity in U937 macrophages was correlated with the leishmanicidal activity by calculating the Selectivity Index (SI), using the equation: SI = LC50/EC50 (Indrayanto et al. [2021]).

[2] = tested on: intracellular amastigotes of L. braziliensis; assay: In vitro leishmanicidal activity against intracellular amastigotes in infected U-937 macrophages (flow cytometry); type: cell-based, Leishmania braziliensis; details: for SI (Selectivity Index = LC50/EC50): LC50 U-937 / EC50 L. braziliensis amastigotes; for EC50: Leishmania braziliensis; for Leishmanicidal activity: class by EC50 on intracellular amastigotes of L. braziliensis
Description: Infective L. braziliensis (MHOM/CO/88/UA301-eGFP) (Pulido et al. [2012]) were cultured in Novy-MacNeal-Nicolle (NNN) biphasic medium at 26 °C for 3 passages maximum. U-937 cells, prepared as described in the previous section, were adjusted to approximately 3 × 10^5 cells per mL of supplemented RPMI 1640 medium containing […] of PMA to induce cell adherence. One mL was dispensed into each well of a 24-well plate and platters were incubated at 37 °C in % CO2, 95% humidity atmosphere for 72 h. Then, adherent cells were infected with fluorescent promastigotes of L. braziliensis in a 15:1 parasite to cell ratio. Plates were incubated again at 34 °C and % CO2, 95% humidity atmosphere. After 24 h, non-phagocytosed parasites were washed by pipetting phosphate buffered solution (PBS) in the plate at room temperature and 500 µL of fresh complete RPMI 1640 medium was added. Then, 500 µL of each serial dilution of QUE, PIP, CUR, and amphotericin B was added to each well and plates were incubated at 34 °C with % CO2, 95% humidity atmosphere. The EC50, the median effective concentration to induce […] killing of the intracellular amastigotes in infected cells, was measured by Flow cytometry at 488 nm of excitation and 525 nm of emission. After 48 h of incubation, cells were harvested with cold dissociation buffer (1x PBS with 2% EDTA) and the harvested cells were washed with buffer (1 × PBS with 2% FBS), and results were analyzed by FlowJo 10. The EC50 was determined with a non-lineal regression using Prism GraphPad 10.
as §5

[3] = tested on: L. braziliensis-induced cutaneous leishmaniasis ulcers; assay: Histopathological analysis (H-E) of healed ulcers from treated hamsters; type: in vivo, golden hamsters (Mesocricetus auratus); parameters: key to Dermis: oedema (grade) / Dermis: granulomatous inflammation (grade) / Epidermis: orthokeratotic hyperkeratosis (grade) / Epidermis: spongiosis (grade) / Epidermis: ulcer (grade) / Dermis: neovascularization (grade) / Dermis: fibroplasia (grade) / Dermis: leukocytic infiltrate (grade): 0, absent; 1, mild; 2, mild to moderate; 3, moderate; 4, moderate to severe; 5, severe; details: healed ulcer after topical treatment
Description: The changes were analyzed under a standard optical microscope.

macrophages = tested on: macrophages; parameters: method as in Ferreira et al. [2011]; details: ref Ferreira et al. [2011]; cited from earlier work
U-937 cells = assay: MTT cytotoxicity assay in uninfected U-937 macrophages; details: class by LC50 in U-937 macrophages
Description: as §1, §2, §3, §4, §5

[4] = tested on: L. amazonensis amastigotes; parameters: method as in Ferreira et al. [2011]; details: ref Ferreira et al. [2011], read-out: EC50 for the amastigote stage; cited from earlier work
[5] = intralesional 200 µg/mL three times per week for 4 weeks, n = 6
[6] = intralesional 200 µg/mL, individual hamster
[7] = intracellular amastigotes of L. braziliensis in U-937 macrophages, 48 h, read-out: EC50 (Median Effective Concentration)
[8] = topical in castor oil daily for 15 days, QUE 1 mg/day, CUR 1.5 mg/day, PIP 2.5 mg/day, n = 6, followed 90 days

Compound	CC50 at 48 h [1]	SI (Selectivity Index = LC50/EC50) [2]	EC50 [2, 7]	Leishmanicidal activity [2]	therapeutic response (hamsters cured) (L. braziliensis; [8])	Dermis: fibroplasia (grade) [3]	Dermis: granulomatous inflammation (grade) [3]	Dermis: leukocytic infiltrate (grade) [3]	Dermis: neovascularization (grade) [3]	Dermis: oedema (grade) [3]	Epidermis: orthokeratotic hyperkeratosis (grade) [3]	Epidermis: spongiosis (grade) [3]	Epidermis: ulcer (grade) [3]	further results
Castor oil														resolution of CL lesions (L. braziliensis; hamster, in vivo): has not shown resolution of the lesions
COc1cccc2c1C(=O)c1c(O)c3c(c(O)c1C2=O)C[C@@](O)(C(=O)CO)C[C@@H]3O[C@H]1C[C@H](N)[C@H](O)[C@H](C)O1 [DOXO, Doxorubicin, reference compound]	1.47 ± 0.06 µM													
meglumine antimoniate [reference compound]														number of hamsters cured (L. braziliensis; [5]): 4 hamsters; therapeutic response (hamsters cured) (L. braziliensis; [5]): 67%; increase of lesion in uncured hamster (L. braziliensis; [6]): 80%; reduction in the lesion size in uncured hamster (L. braziliensis; [6]): 14%
COc1cc(/C=C/C(=O)CC(=O)/C=C/c2ccc(O)c(OC)c2)ccc1O [Curcumin, curcumin]	> 543 µM	> 17.4	30.9 ± 0.3 µM	High (high activity corresponds to EC50 values < 50 µM)	83%	2	0	2	4	1	2	1	0	SI (Selectivity Index = LC50/EC50) ([2]; listed as CUR): exceeds 10; EC50 ([2]; U-937, read-out: in vitro antileishmanial activity (EC50 in mass units)): 11.4 ± 0.1 µg/mL; number of hamsters cured (L. braziliensis; topical 1.5 mg/day for 15 days, n = 6): 5 hamsters; treatment failures (L. braziliensis; topical daily for 15 days, n = 6): one hamster failed treatment
C[C@@H]1[C@H](O)[C@@H](C)/C=C/C=C/C=C/C=C/C=C/C=C/C=C/[C@H](O[C@@H]2O[C@H](C)[C@@H](O)[C@H](N)[C@@H]2O)C[C@@H]2O[C@](O)(C[C@@H](O)C[C@@H](O)[C@H](O)CC[C@@H](O)C[C@@H](O)CC(=O)O[C@H]1C)C[C@H](O)[C@H]2C(=O)O [AMB, Amphotericin B, reference compound]	56.1 ± 5.8 µM	172.7	0.32 ± 0.01 µM	High (high activity corresponds to EC50 values < 50 µM)										
O=C(/C=C/C=C/c1ccc2c(c1)OCO2)N1CCCCC1 [Piperine, piperine]	> 701 µM	> 80	8.76 ± 1.4 µM	High (high activity corresponds to EC50 values < 50 µM)	67%	2	0	2	2	1	2	2	0	toxicity towards macrophages (macrophages): non-toxicity; Cytotoxicity (U-937 cells): Low (low cytotoxicity for LC50 values > 200 µM); EC50 ([2]; U-937, amastigote stage of L. braziliensis, read-out: in vitro antileishmanial activity (EC50 in mass units)): 2.5 ± 0.4 µg/mL; EC50 ([2]; U-937, read-out: effective concentration (in vitro leishmanicidal activity)): 8 µM; EC50 [4]: 28 µM
